One series deals with T1, hOAT1 (Homo sapiens, UniProt Q4U2R8).
T1 construct: expressed in transfected cells; host or cells: HEK-293 (293) cells, pEBTetD plasmid, doxycycline-induced
T1 sequence (Q4U2R8 1-563): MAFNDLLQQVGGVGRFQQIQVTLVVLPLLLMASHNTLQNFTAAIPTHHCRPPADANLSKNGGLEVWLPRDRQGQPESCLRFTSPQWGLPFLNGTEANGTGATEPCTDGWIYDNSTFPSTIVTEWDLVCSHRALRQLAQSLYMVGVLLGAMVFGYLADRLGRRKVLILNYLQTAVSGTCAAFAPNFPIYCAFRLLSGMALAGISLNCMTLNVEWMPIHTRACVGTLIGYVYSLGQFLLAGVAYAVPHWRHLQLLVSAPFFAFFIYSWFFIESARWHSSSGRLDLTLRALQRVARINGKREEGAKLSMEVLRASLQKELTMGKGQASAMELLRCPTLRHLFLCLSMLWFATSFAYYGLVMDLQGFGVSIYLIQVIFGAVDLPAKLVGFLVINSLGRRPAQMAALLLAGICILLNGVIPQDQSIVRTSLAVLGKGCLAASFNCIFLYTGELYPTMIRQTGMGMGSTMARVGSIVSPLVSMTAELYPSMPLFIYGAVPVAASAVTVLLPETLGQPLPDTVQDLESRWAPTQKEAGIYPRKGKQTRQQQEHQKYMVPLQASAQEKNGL
Briefly: Inhibition of hOAT1-mediated PAH uptake, stably transfected 293 cells. The format is cell-based. The settings on record: substrate 10 µM PAH, median (95% CI). From the text: (§1) We characterized the inhibitory potential of iohexol on major drug transporters recommended by regulatory agencies, which were previously assessed in a clinical transporter phenotyping cocktail study. These transporters include hOAT1, hOAT3, hOCT1, hOCT2, hMATE1, hMATE2K, human organic anion transporter polypeptides (hOATP)1B1, hOATP1B3, and human multidrug resistance protein (hMDR)1. Additionally, we investigated whether iohexol is a substrate for any of the renal transporters among these, including hOAT1/3, hOCT1/2, and hMATE1/2K. Cell‐based uptake assays were used to assess the activities of hOAT1/3, hOCT1/2, hMATE1/2K, and hOATP1B1/1B3. Inside‐out membrane vesicle uptake assays were used to evaluate the activity of hMDR1.
(§2) To determine the maximal inhibitory potential of iohexol, intracellular accumulation of a standard substrate was measured with and without the clinically relevant highest concentrations of iohexol. Control inhibitors were tested in each experiment.
(§3) In all subsequent in vitro studies, control experiments were conducted to validate the results. These included positive controls for substrates and inhibitors, as well as cells either without transporter expression or transfected with an empty vector, and control vesicles. Each condition, including cells or vesicles with the transporter and their respective controls, was analyzed in at least three replicates. For detailed information on materials, methods, and data analysis techniques used, refer to the Supporting Information. […]
(§4) R version 4.2.1 (R Foundation for Statistical Computing, Vienna, Austria) was used for statistical evaluations and data visualization. The data analysis approach for the in vitro study was detailed by Hsin CH et al..^1 In brief, for transport assays, the initial uptake rate was calculated by normalizing the substrate concentration to both the protein concentration and the incubation time for each dish or well. The transporter-mediated uptake rate (net uptake) was determined by performing an element-wise subtraction of uptake rates from different conditions. […]

A further series addresses T2, hOAT3 (Homo sapiens, UniProt Q8TCC7).
T2 construct: expressed in transfected cells; host or cells: HEK-293 (293) cells, pEBTetD plasmid, doxycycline-induced
T2 sequence (Q8TCC7 1-542): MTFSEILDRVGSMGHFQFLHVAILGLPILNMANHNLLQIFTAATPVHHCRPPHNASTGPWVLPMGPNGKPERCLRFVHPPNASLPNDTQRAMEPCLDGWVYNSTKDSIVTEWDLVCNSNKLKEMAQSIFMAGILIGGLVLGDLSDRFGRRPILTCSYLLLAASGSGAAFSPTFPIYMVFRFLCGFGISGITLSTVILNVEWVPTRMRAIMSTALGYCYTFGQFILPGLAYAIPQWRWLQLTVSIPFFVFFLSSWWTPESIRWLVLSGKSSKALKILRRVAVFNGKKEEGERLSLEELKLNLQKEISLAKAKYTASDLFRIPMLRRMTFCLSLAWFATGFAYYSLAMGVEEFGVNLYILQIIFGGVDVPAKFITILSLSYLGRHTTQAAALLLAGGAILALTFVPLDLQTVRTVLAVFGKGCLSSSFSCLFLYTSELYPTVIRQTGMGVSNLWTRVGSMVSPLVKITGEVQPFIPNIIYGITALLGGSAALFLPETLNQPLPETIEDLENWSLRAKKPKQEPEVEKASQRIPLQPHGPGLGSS
In words: Inhibition of hOAT3-mediated E3S uptake, stably transfected 293 cells. The format is cell-based. The following applies: substrate 3 µM E3S, median (95% CI).
Description: as §1, §2, §3, §4

The test system of a further series is P‐glycoprotein. Also noted: method as in ref 16 Supawat et al. The settings on record: human cancer cell lines; not statistically significant; ref 16 Supawat et al.; cited from earlier work.
For series [1], the system named is human Phase I or Phase II enzymes. The arrangement: method as in PMID 32948918. The settings on record: cited from earlier work.
Where [2] appears, read: HEK293, 1 mM iohexol, read-out: Inhibitory effect (% reduction of specific activity).
The mark [3] stands for this setting: HEK293, 20 mM iohexol, read-out: Inhibitory effect (% reduction of specific activity).

The text below walks through data of publication PMC11788587, “Validating Low‐Dose Iohexol as a Marker for Glomerular Filtration Rate by In Vitro and In Vivo Studies” (Clinical and Translational Science, 2025).

Regarding `CC(=O)N(CC(O)CO)c1c(I)c(C(=O)NCC(O)CO)c(I)c(C(=O)NCC(O)CO)c1I` (centres unmarked) [iohexol], the “Inhibitory effect (% reduction of specific activity)” value on hOAT1 (20 mM iohexol) and on hOAT3 (20 mM iohexol) was “no notable inhibitory effects” throughout. Further, the results for the inhibition at 1000 µM on hOAT1 (setting [2]) and on hOAT3 (setting [2]) were -0.45% and -4%, respectively. The inhibition at 20000 µM is 3.1% on hOAT1 (setting [3]) and -3.5% at hOAT3 (setting [3]). In the series on P‐glycoprotein, the “Inhibitory effect on P-glycoprotein” value is on record as “mild inhibitory effect”. The “Inhibition of human Phase I or Phase II enzymes” value in series [1] is “does not inhibit”.
